Where two headings read alike, the source gives them in different places.
Assays:
[1] = test system: rabbit aorta; test: Relaxing effect on isolated rabbit aorta contracted (depolarized) by KCl; details: Oryctolagus cuniculus; rabbit aorta depolarized by 127 mM KCl; read-out: ED50 (dose causing a 50% relaxation of the precontracted arteries)
Protocol: I. RELAXING EFFECT ON ISOLATED RABBIT AORTA CONTRACTED BY KCl
The thoracic aortae of male rabbits are removed, cut into narrow strips and placed under tension in an oxygenated survival medium. The contractions of these arteries, the amplitude of which is measured using a myograph, are induced by a 127 mM solution of KCl [R. Towart et al., Arzneim.-Forsch./Drug Res. 32, 338-346 (1982)]. The compounds studied are dissolved in a mixture of anhydrous ethanol and double distilled water (1:1) v/v, the percentage of ethanol in the baths being less than or equal to 0.3% at the end of the experiment. When the contraction plateau is reached, the compound is added to the medium in increasing doses every 15 minutes.

[2] = test system: spontaneously hypertensive rats; test: Antihypertensive activity in spontaneously hypertensive rats, oral administration; format: in vivo; details: 30 mg/kg; for change in vivo at 30 mg/kg: Rattus norvegicus
Protocol: Spontaneously hypertensive rats aged between 16 and 20 weeks are used. The systolic pressure is measured by plethysmography and the heart rate is obtained from the pressure graph. The compounds studied are administered orally.

[3] = test system: spontaneously hypertensive rats; test: Antihypertensive activity in spontaneously hypertensive rats, intravenous administration; format: in vivo
From the text: 2. Intravenous administration
Spontaneously hypertensive rats aged between 16 and 20 weeks are used. They are anesthetized with diethyl ether, a cannula is inserted into the caudal artery to measure the arterial pressure and a catheter is inserted into the right jugular vein to administer the compounds as described previously (L. S. Watson and L. T. Ludden, New Antihypertensive Drugs, pages 87-96, Spectrum Publication, Inc., 1976).
Each curve C relates to the control group receiving only the vehicle and each curve T relates to the treated group [n (number of animals per group)=4-7]. The said groups are compared either by analysis of variance, if the variances are homogenous (Bartlett's homocedasticity test), or by Kruskall-Wallis's non-parametric test (the statistically significant results being represented as follows:
FIGS. 1-6 relate to the variation in systolic pressure, expressed in mm Hg (1 mm Hg corresponds approximately to 1.333×10^2 Pa), as a function of time, expressed in minutes, and FIGS. 1a-6a relate to the variation in diastolic pressure, also expressed in mm Hg, as a function of time, expressed in minutes, for the treated groups (curves T) compared with the corresponding control groups (curves C), the doses of products administered being as follows:
FIGS. 2 and 2a: nicardipine at 30 μg/kg i.v.,
FIGS. 3 and 3a: Example 2 at 30 μg/kg i.v.,
FIGS. 4 and 4a: Example 7 at 100 μg/kg i.v.,
FIGS. 5 and 5a: Example 8 at 300 μg/kg i.v., and
FIGS. 6 and 6a: Example 11 at 30 and 100 μg/kg i.v. (curves T1 and T2).

[4] = test system: anesthetized dogs; test: Hemodynamic effects on anesthetized dogs, intraduodenal administration; format: in vivo, Mongrel dogs; details: 0.5 mg/kg
Protocol: III. HEMODYNAMIC EFFECTS ON ANESTHETIZED DOGS Mongrel dogs are anesthetized with pentobarbital sodium (25 mg/kg i.v.). Each animal is placed under artificial respiration and a catheter is introduced into the aorta to measure the arterial pressure. The outputs of the aorta (O. Aor.), right femoral artery (O. Fem.) and left coronary artery (descending part) (O. Cor.) are measured continuously by means of electromagnetic rings. The total peripheral resistances (T.P.R.) are also calculated. […]

[5] = in vivo; details: rat, intravenous, male Wistar rats weighing 300 g
Protocol: The LD50 was determined by intravenous administration to male Wistar rats weighing 300 g.

[6] = versus nicardipine and nifedipine

SMILES: COC(=O)C1=C(C)NC(C)=C(C(=O)OCC2COC3(CCCCC3)O2)C1c1cccc([N+](=O)[O-])c1 (centres unmarked) [Example 2, methyl (1,4-dioxaspiro[4,5]decan-2-yl)methyl 1,4-dihydro-2,6-dimethyl-4-(3-nitrophenyl)pyridine-3,5-dicarboxylate]
- EC50 [1]: 50 nM
- duration of the effect, Systolic pressure [2]: > 24 h
- change in vivo at 30 mg/kg ([2]; read-out: % variation Heart rate): 24.5%
- change in vivo at 30 mg/kg ([2]; read-out: % variation Systolic pressure): -45.4 ± 6.3%
- drop in systolic and diastolic pressures (in words) ([3]; 30 μg/kg i.v., versus nicardipine 30 μg/kg and nifedipine 300 μg/kg i.v.): greater drop in systolic and diastolic pressures than nicardipine at the same dose and nifedipine at 10 times the dose
- duration of the antihypertensive effect (in words) ([3]; single i.v. dose, Ex. 2 30, Ex. 7 100, Ex. 8 300, Ex. 11 30 and 100 μg/kg, versus nicardipine and nifedipine): notably longer than that of nicardipine and nifedipine
- % variation D.P. (diastolic pressure) [4]: -41.2%
- % variation O. Aor. (output of the aorta) [4]: +40.2%
- % variation O. Cor. (output of left coronary artery) [4]: +89.5%
- % variation O. Fem. (output of right femoral artery) [4]: +180.5%
- duration of the effect, D.P. (diastolic pressure) [4]: 240 min
- duration of the effect, O. Aor. (output of the aorta) [4]: 300 min
- duration of the effect, O. Cor. (output of left coronary artery) [4]: 300 min
- duration of the effect, O. Fem. (output of right femoral artery) [4]: 300 min
- % variation T.P.R. (total peripheral resistances) ([4]; calculated): -53.4%
- duration of the effect, T.P.R. (total peripheral resistances) ([4]; calculated): 300 min
- cardiac, femoral and coronary outputs (in words) [4, 6]: increased for a longer time and to a greater extent
- drop in total peripheral resistances (in words) [4, 6]: greater drop in total peripheral resistances than nicardipine and nifedipine
- duration of drop in total peripheral resistances (in words) [4, 6]: considerably longer
- LD50 [5]: 27.9 mg/kg
